Data taken from a compilation of properties of binary mixtures (doi:10.1007/s10953-021-01127-x).

Experiment: xn = mol fraction of the nth substance listed
Details: 100 kPa

Question: What does the source list for `CCCC[n+]1ccn(C)c1C.F[B-](F)(F)F` + O=C1CCCN1?
Answer: speed of sound (293.15 K, x1 = 0.0698): 1659.6 m/s; speed of sound (293.15 K, x1 = 0.1948): 1670.6 m/s; speed of sound (293.15 K, x1 = 0.2495): 1672.1 m/s; speed of sound (293.15 K, x1 = 0.2945): 1671.9 m/s; speed of sound (293.15 K, x1 = 0.3428): 1670.8 m/s; speed of sound (293.15 K, x1 = 0.3964): 1666.8 m/s; speed of sound (293.15 K, x1 = 0.4419): 1661.9 m/s; speed of sound (293.15 K, x1 = 0.5004): 1653.8 m/s; speed of sound (293.15 K, x1 = 0.5563): 1645.8 m/s; speed of sound (293.15 K, x1 = 0.5949): 1640.2 m/s; speed of sound (293.15 K, x1 = 0.6984): 1626.6 m/s; speed of sound (293.15 K, x1 = 0.7521): 1622.1 m/s; speed of sound (293.15 K, x1 = 0.8549): 1623.2 m/s; speed of sound (293.15 K, x1 = 0.9564): 1642.5 m/s; speed of sound (298.15 K, x1 = 0.0698): 1644.9 m/s; speed of sound (298.15 K, x1 = 0.1052): 1649.6 m/s; speed of sound (298.15 K, x1 = 0.1948): 1659.8 m/s; speed of sound (298.15 K, x1 = 0.2495): 1662.8 m/s; speed of sound (298.15 K, x1 = 0.2945): 1663.3 m/s; speed of sound (298.15 K, x1 = 0.3428): 1662 m/s; speed of sound (298.15 K, x1 = 0.3964): 1658.3 m/s; speed of sound (298.15 K, x1 = 0.5004): 1645.7 m/s; speed of sound (298.15 K, x1 = 0.5563): 1637.1 m/s; speed of sound (298.15 K, x1 = 0.5949): 1630.9 m/s; speed of sound (298.15 K, x1 = 0.6419): 1623.6 m/s; speed of sound (298.15 K, x1 = 0.6984): 1616.1 m/s; speed of sound (298.15 K, x1 = 0.8031): 1608.8 m/s; speed of sound (298.15 K, x1 = 0.8549): 1610.3 m/s; speed of sound (298.15 K, x1 = 0.9021): 1615.8 m/s; speed of sound (298.15 K, x1 = 0.9564): 1628.7 m/s; speed of sound (303.15 K, x1 = 0.0698): 1629.3 m/s; speed of sound (303.15 K, x1 = 0.1052): 1634.8 m/s; speed of sound (303.15 K, x1 = 0.1469): 1640.6 m/s; speed of sound (303.15 K, x1 = 0.2945): 1652 m/s; speed of sound (303.15 K, x1 = 0.3428): 1651.2 m/s; speed of sound (303.15 K, x1 = 0.4419): 1643.3 m/s; speed of sound (303.15 K, x1 = 0.5004): 1635.6 m/s; speed of sound (303.15 K, x1 = 0.5563): 1626.5 m/s; speed of sound (303.15 K, x1 = 0.5949): 1620.4 m/s; speed of sound (303.15 K, x1 = 0.6419): 1613.1 m/s; speed of sound (303.15 K, x1 = 0.6984): 1605.4 m/s; speed of sound (303.15 K, x1 = 0.7521): 1599.8 m/s; speed of sound (303.15 K, x1 = 0.8031): 1596.7 m/s; speed of sound (303.15 K, x1 = 0.8549): 1597.8 m/s; speed of sound (303.15 K, x1 = 0.9021): 1603.4 m/s; speed of sound (308.15 K, x1 = 0.0698): 1615.7 m/s; speed of sound (308.15 K, x1 = 0.1052): 1621.9 m/s; speed of sound (308.15 K, x1 = 0.1469): 1628.7 m/s; speed of sound (308.15 K, x1 = 0.1948): 1634.9 m/s; speed of sound (308.15 K, x1 = 0.2495): 1638.3 m/s; speed of sound (308.15 K, x1 = 0.2945): 1640.1 m/s; speed of sound (308.15 K, x1 = 0.3428): 1639.9 m/s; speed of sound (308.15 K, x1 = 0.3964): 1637.2 m/s; speed of sound (308.15 K, x1 = 0.4419): 1633 m/s; speed of sound (308.15 K, x1 = 0.5004): 1625.8 m/s; speed of sound (308.15 K, x1 = 0.5563): 1617.3 m/s; speed of sound (308.15 K, x1 = 0.5949): 1611.1 m/s; speed of sound (308.15 K, x1 = 0.6419): 1603.7 m/s; speed of sound (308.15 K, x1 = 0.6984): 1595.6 m/s; speed of sound (308.15 K, x1 = 0.7521): 1589.4 m/s; speed of sound (308.15 K, x1 = 0.8031): 1586.2 m/s; speed of sound (308.15 K, x1 = 0.8549): 1586.8 m/s; speed of sound (308.15 K, x1 = 0.9021): 1591.6 m/s; speed of sound (308.15 K, x1 = 0.9564): 1603.7 m/s
